# Results taken from ChEMBL document CHEMBL1154088, “Synthesis, biological evaluation and docking studies of novel benzopyranone congeners for their expected activity as anti-inflammatory, analgesic and antipyretic agents” (Bioorg Med Chem, 2009).
# Experiments:
# Mus musculus [1] = assay: Analgesic activity in mouse assessed as protection against acetic acid-induced writhing at one-tenth of LD50 administered subcutaneously 30 mins before acetic acid challenge measured after 4 hrs relative to control; type: functional
# Rattus norvegicus [2] = assay: Antipyretic activity against yeast-induced hyperpyrexia in hyperthermic rat assessed as rectal temperature at one-tenth of LD50 administered subcutaneously 18 hrs after yeast challenge measured after 1 hr (Rvb=39.24 +/- 0.22 degC); type: functional
# Rattus norvegicus [3] = assay: Antipyretic activity against yeast-induced hyperpyrexia in hyperthermic rat assessed as rectal temperature at one-tenth of LD50 administered subcutaneously 18 hrs after yeast challenge measured after 2 hrs (Rvb=39.11 +/- 0.26 degC); type: functional
# Rattus norvegicus [4] = assay: Antipyretic activity against yeast-induced hyperpyrexia in hyperthermic rat assessed as rectal temperature at one-tenth of LD50 administered subcutaneously 18 hrs after yeast challenge measured after 3 hrs (Rvb=39.20 +/- 0.24 degC); type: functional
# Rattus norvegicus [5] = assay: Antipyretic activity against yeast-induced hyperpyrexia in hyperthermic rat assessed as rectal temperature at one-tenth of LD50 administered subcutaneously 18 hrs after yeast challenge measured after 4 hrs (Rvb=39.17 +/- 0.20 degC); type: functional
# [6] = Toxicity in sc dosed albino mouse up to 24 hrs; type: organism-based; settings: in vivo
# Rattus norvegicus [7] = assay: Antiinflammatory activity against carrageenan-induced foot paw edema in rat assessed as reduction in paw size at one-tenth of LD50 administered subcutaneously 30 mins before carrageenan challenge measured after 3 hrs relative to control; type: functional; set-up: scale not given: the % may be the effect or the level left
# Mus musculus [8] = assay: Analgesic activity in mouse assessed as protection against acetic acid-induced writhing at one-tenth of LD50 administered subcutaneously 30 mins before acetic acid challenge measured after 1 hr relative to control; type: functional
# Mus musculus [9] = assay: Analgesic activity in mouse assessed as protection against acetic acid-induced writhing at one-tenth of LD50 administered subcutaneously 30 mins before acetic acid challenge measured after 2 hrs relative to control; type: functional
# Mus musculus [10] = assay: Analgesic activity in mouse assessed as protection against acetic acid-induced writhing at one-tenth of LD50 administered subcutaneously 30 mins before acetic acid challenge measured after 3 hrs relative to control; type: functional
SMILES,Activity (Mus musculus [1]) [%],Activity (Rattus norvegicus [2]) [°C],Activity (Rattus norvegicus [3]) [°C],Activity (Rattus norvegicus [4]) [°C],Activity (Rattus norvegicus [5]) [°C],LD50 at 24 h [6] [mg/kg],Activity (Rattus norvegicus [7]) [%],Activity (Mus musculus [8]) [%],Activity (Mus musculus [9]) [%],Activity (Mus musculus [10]) [%]
CN(C)c1ccc(/C=C/C(=O)c2c(O)ccc3c(-c4ccccc4)cc(=O)oc23)cc1,9.41,38.31,38.21,38.51,38.86,390,17.4,37.41,36.94,22.82
C/C(=N\Nc1ccccc1)c1c(O)ccc2c(-c3ccccc3)cc(=O)oc12,1.17,39.11,38.81,38.91,38.91,290,12.35,3.75,2.58,2.81
CC(=O)c1c(O)ccc2c(-c3ccccc3)cc(=O)oc12,2.81,38.91,38.91,39,39.06,290,20.27,0,2.34,4.92
N#Cc1c(-c2cccnc2)cc(-c2c(O)ccc3c(-c4ccccc4)cc(=O)oc23)[nH]c1=O,0.95,38.71,38.81,38.81,38.91,370,7.17,8.8,8.8,3.57
COc1ccc(C2CC(c3c(O)ccc4c(-c5ccccc5)cc(=O)oc34)=NN2c2ccc([N+](=O)[O-])cc2[N+](=O)[O-])cc1 (stereo not given),3.58,38.81,38.91,38.91,38.91,370,11.61,3.58,4.78,3.58
N#Cc1c(-c2ccc(Cl)cc2)cc(-c2c(O)ccc3c(-c4ccccc4)cc(=O)oc23)[nH]c1=O,1.66,38.91,38.84,38.81,38.91,310,16.35,0,1.18,0.71
N#Cc1c(-c2ccc(Cl)cc2)cc(-c2c(O)ccc3c(-c4ccccc4)cc(=O)oc23)[nH]c1=N,3.52,38.91,39,38.84,38.91,390,4.7,3.28,2.58,5.39
COc1ccc(C2CC(c3c(O)ccc4c(-c5ccccc5)cc(=O)oc34)=NN2c2ccccc2)cc1 (stereo not given),6.63,38.51,38.14,38.44,38.87,370,18.85,41.23,39.09,18.24
O=c1cc(-c2ccccc2)c2ccc(O)c(C3=NN(c4ccccc4)C(c4ccc(Cl)cc4)C3)c2o1 (stereo not given),3.11,38.91,38.81,38.91,39.05,330,18.85,0.71,2.63,3.35
CN(C)c1ccc(-c2cc(-c3c(O)ccc4c(-c5ccccc5)cc(=O)oc34)[nH]c(=O)c2C#N)cc1,2.35,38.91,38.91,38.9,39.11,390,7.24,9.66,7.54,7.54
